Two compounds from patent US8999315B2, “Bis-quaternary ammonium salt corrosion inhibitors” (Nalco Company, priority 2004, dated 2015) can be followed below.

Molecules are shown by their SMILES.

Test [1] concerns sulfate-reducing bacteria. In words: Biostatic Assay (NACE standard, serial dilution). It counts as cell-based. The following applies: actives only. As to the method:
The biostatic properties of representative bis-quaternary ammonium salts are characterized according to the current NACE standard—NACE TMO194094. Viable organisms are cultured from aqueous field samples in iron-rich media purchased from Commercial Microbiology (Houston, Tex.). Stock solutions of the viable organisms in ferrous media are serially diluted in triplicate. Black iron sulfide precipitates indicate micobial growth (of sulfate-reducing bacteria). Clear media solutions indicate complete cell death. Pure media solutions are used as controls and compared against media spiked with 5 to 500 ppm of a test compound. Additives that require increased dilutions to attain complete cell death […], relative to the standard. Those compounds that required fewer dilutions are relatively biostatic.
Comparative test results for representative bis-quaternary ammonium salts prepared according to the methods of Examples 1 and 2 and commercially available quaternary ammonium salts A and B are shown in Table 3.

Test [2] can be described thus: Wheelbox Test (corrosion of coupons in CO2-purged brine/hydrocarbon). To be noted: actives only, 24 hours at 176° F., brine/LVT 200, 500 ppm acetic acid. The procedure:
Cleaned and pre-weighed coupons are put into bottles containing a mixture of brine (180 mL), and hydrocarbon (LVT 200, 20 mL) and 500 ppm of acetic acid and the resulting mixture is purged with carbon dioxide. An increasing amount of tested inhibitor (5, 10, 25 and 50 ppm) is added into the bottles, the air space in the bottles is purged with CO2 mixture and immediately capped to avoid air contamination. In addition to those bottles that are dosed with inhibitor, three bottles remain untreated. The complete set of capped test bottles is set on the rotating wheel, and run for 24 hours at 176° F. On conclusion of the test, the bottles are removed and allowed to cool to room temperature. The bottles are then uncapped and the coupons are removed, cleaned, dried and re-weighed. Corrosion rate and protection efficiency are then calculated by comparing the mass loss of inhibited coupons to those of the blanks.
Comparative test results for representative bis-quaternary ammonium salts prepared according to the methods of Examples 1 and 2 and a commercially available quaternary ammonium salt are shown in Table 1.

Test [3] is described as follows: Field Trial, corrosion rate by electrical resistance MicroCor probes in a production line. The following applies: corrosion inhibitor formulations, gas/oil/brine multiphase flow. The text has this:
Field corrosion rate data are obtained from a production line in an Alaskan field that is equipped with high sensitivity electrical resistance MicroCor probes (Rohrback Cosasco Systems, Santa Fe Springs, Calif.). The sensing element of the probe, positioned into gas/oil/brine multiphase flow, reads a cumulative metal loss that is transformed into corrosion rate. Once an uninhibited corrosion rate baseline has been established, corrosion inhibitor formulations are incrementally injected upstream of the probe over a period of thirty hours. The resulting drop in corrosion rates are used to calculates protection efficiency and establish the relative rankings of corrosion inhibitor formulations.
Comparative test results for representative bis-quaternary ammonium salts prepared according to the methods of Examples 1 and 2, a commercially available quaternary ammonium salt and a commercially available alkylbenzyldimethylammonium salt are shown in Table 2.

With `CCCCCCCCCCCC[N+](C)(C)CC(O)C[N+](C)(C)CCCCCCCCCCCC.CCCCCCCCCCCC[N+](C)(C)CC(O)C[N+](C)(C)CCCCCCCCCCCC.O=S(=O)([O-])[O-].[Cl-].[Cl-]` [Example 1], the “log reduction of SRB growth” value in test [1] (10 ppm), in test [1] (25 ppm) and in test [1] (100 ppm) was 6 log in each case. Also, the “Percent Protection” value in test [2] (5 ppm inhibitor) turned out to be 65%; in test [2] (10 ppm inhibitor) it was 81%; in test [2] (25 ppm inhibitor) it was 92%; in test [2] (50 ppm inhibitor) it was 91%; in test [3] (3 ppm), 60.5%; in test [3] (6 ppm), 87.6%. In addition, the “Percent Protection” value is reported as 89.8% in test [3] (11 ppm), 91.8% in test [3] (22 ppm) and 98.3% in test [3] (44 ppm).

As to `CCCCCCCCC=CCCCCCCCCN(CC(O)C[N+](C)(C)CCCCCCCCCCCC)CC(O)C[N+](C)(C)CCCCCCCCCCCC.[Cl-].[Cl-]` (stereo not drawn) [Example 2], the “log reduction of SRB growth” value in test [1] (10 ppm) was 0 log; in test [1] (25 ppm), 6 log; in test [1] (100 ppm), 6 log. The “Percent Protection” value came to 21% in test [2] (5 ppm inhibitor); 73% in test [2] (10 ppm inhibitor); 86% in test [2] (25 ppm inhibitor); 89% in test [2] (50 ppm inhibitor); 76.2% in test [3] (3 ppm); 96.2% in test [3] (6 ppm). Moreover, the “Percent Protection” value amounted to 95.3% in test [3] (11 ppm), 97.8% in test [3] (22 ppm) and 98.0% in test [3] (44 ppm).
